Several values for one entry are separate records, joined by “and”; a condition that tells them apart may be missing. Equal values may be shown once.
System: Swiss mice, Sarcoma 180 sc, mean tumor weight T/C
Assay: NCI In Vivo Anticancer Drug Screen. Data for tumor model Sarcoma 180 (subcutaneous) in Swiss mice
Details: endpoint: mean tumor weight, higher = larger tumour
Procedure, shortened: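 Transplantable tumors were established in mice, compound was given, then survival or tumor size was recorded. The treated value was divided by the vehicle-control value.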

[1] = dose: 500.0 mg/kg/injection, schedule: Q01DX007 (ip), vehicle: saline
[2] = dose: 66.0 mg/kg/injection, schedule: Q01DX007 (ip), vehicle: carboxymethylcellulose (CMC)
[3] = dose: 100.0 mg/kg/injection, schedule: Q01DX007 (ip), vehicle: carboxymethylcellulose (CMC)
[4] = dose: 20.0 mg/kg/injection, schedule: Q01DX007 (ip), vehicle: carboxymethylcellulose (CMC)
[5] = dose: 100.0 mg/kg/injection, schedule: Q01DX007 (ip), vehicle: water
[6] = dose: 200.0 mg/kg/injection, schedule: Q01DX007 (ip), vehicle: water

CC(=O)OCC1OC(n2ccc(N)nc2=O)C(OC(C)=O)C1OC(C)=O (stereo not drawn)
T/C (dose: 50.0 mg/kg/injection, schedule: Q01DX007 (oral), vehicle: carboxymethylcellulose (CMC)): 44 % of control | T/C (dose: 100.0 mg/kg/injection, schedule: Q01DX007 (oral), vehicle: carboxymethylcellulose (CMC)): 32 % of control | T/C (dose: 200.0 mg/kg/injection, schedule: Q01DX007 (oral), vehicle: carboxymethylcellulose (CMC)): 32 % of control | T/C (dose: 400.0 mg/kg/injection, schedule: Q01DX007 (oral), vehicle: carboxymethylcellulose (CMC)): 63 % of control

CCOc1ccc2c(c1)CC[C@@H]1[C@@H]2CC[C@@]2(C)[C@H]1CC[C@]2(C)O
T/C (dose: 0.5 mg/kg/injection, schedule: Q#A X014 (sc), vehicle: steriod suspending solution): 92 % of control | T/C (dose: 5.0 mg/kg/injection, schedule: Q#A X014 (sc), vehicle: steriod suspending solution): 79 % of control | T/C (dose: 50.0 mg/kg/injection, schedule: Q#A X014 (sc), vehicle: steriod suspending solution): 72 % of control

C=CN1CCCC1=O
T/C (dose: 93.0 mg/kg/injection, schedule: Q01DX007 (ip), vehicle: saline): 106 % of control | T/C (dose: 98.0 mg/kg/injection, schedule: Q01DX007 (ip), vehicle: saline): 70 % of control | T/C (dose: 100.0 mg/kg/injection, schedule: Q01DX007 (ip), vehicle: saline): 57 % of control | T/C (dose: 124.0 mg/kg/injection, schedule: Q01DX007 (ip), vehicle: saline): 80 % of control | T/C (dose: 148.0 mg/kg/injection, schedule: Q01DX007 (ip), vehicle: saline): 65 % of control | T/C (dose: 150.0 mg/kg/injection, schedule: Q01DX007 (ip), vehicle: saline): 78 % of control | T/C (dose: 166.0 mg/kg/injection, schedule: Q01DX007 (ip), vehicle: saline): 84 % of control | T/C [1]: 9 % of control | T/C (dose: 750.0 mg/kg/injection, schedule: Q01DX007 (ip), vehicle: saline): 20 % of control

[N-]=[N+]=NC1(C(=O)O)CCCC1
T/C [2]: 71 % of control | T/C [3]: 60 % of control | T/C (dose: 225.0 mg/kg/injection, schedule: Q01DX007 (ip), vehicle: carboxymethylcellulose (CMC)): 63 % of control

Cn1cc(NC(=O)c2cc(NC(=O)c3cc(NC=O)cn3C)cn2C)cc1C(=O)NCCC(=N)N
T/C (dose: 20.0 mg/kg/injection, schedule: Q01DX007 (sc), vehicle: water): 80 % of control | T/C (dose: 25.0 mg/kg/injection, schedule: Q01DX007 (sc), vehicle: water): 77 % of control | T/C (dose: 40.0 mg/kg/injection, schedule: Q01DX007 (sc), vehicle: water): 92 % of control | T/C (dose: 50.0 mg/kg/injection, schedule: Q01DX007 (sc), vehicle: water): 64 % of control | T/C (dose: 75.0 mg/kg/injection, schedule: Q01DX007 (sc), vehicle: water): 71 % of control

C[C@H]1CC[C@@H]2[C@@H](C)[C@H]3[C@H](C[C@H]4[C@@H]5CC=C6C[C@@H](O)CC[C@]6(C)[C@H]5C[C@H](O)[C@]34C)N2C1
T/C (dose: 10.0 mg/kg/injection, schedule: Q01DX007 (sc), vehicle: steriod suspending solution): 73 % of control | T/C (dose: 50.0 mg/kg/injection, schedule: Q01DX007 (sc), vehicle: steriod suspending solution): 44 % of control | T/C (dose: 100.0 mg/kg/injection, schedule: Q01DX007 (sc), vehicle: steriod suspending solution): 62 % of control

[Cl][Pt+2]([Cl])([Cl])[Cl].[Na+].[S-]c1ncnc2nc[nH]c12.[S-]c1ncnc2nc[nH]c12
T/C (dose: 1.1 mg/kg/injection, schedule: Q01DX007 (ip), vehicle: carboxymethylcellulose (CMC)): 92 % of control | T/C (dose: 10.0 mg/kg/injection, schedule: Q01DX007 (ip), vehicle: carboxymethylcellulose (CMC)): 45 % of control | T/C (dose: 19.0 mg/kg/injection, schedule: Q01DX007 (ip), vehicle: carboxymethylcellulose (CMC)): 74 % of control | T/C [4]: 40 % of control | T/C (dose: 22.0 mg/kg/injection, schedule: Q#A X014 (ip), vehicle: methylcellulose (MC)): 47 % of control and 50 % of control | T/C (dose: 22.2 mg/kg/injection, schedule: Q#A X014 (ip), vehicle: carboxymethylcellulose (CMC)): 29 % of control | T/C (dose: 29.0 mg/kg/injection, schedule: Q01DX007 (ip), vehicle: carboxymethylcellulose (CMC)): 43 % of control | T/C (dose: 30.0 mg/kg/injection, schedule: Q01DX007 (ip), vehicle: carboxymethylcellulose (CMC)): 54 % of control | T/C (dose: 33.3 mg/kg/injection, schedule: Q#A X014 (ip), vehicle: carboxymethylcellulose (CMC)): 24 % of control | T/C (dose: 44.0 mg/kg/injection, schedule: Q01DX007 (ip), vehicle: carboxymethylcellulose (CMC)): 38 % of control and 41 % of control | T/C (dose: 50.0 mg/kg/injection, schedule: Q#A X014 (ip), vehicle: carboxymethylcellulose (CMC)): 10 % of control | T/C (dose: 50.0 mg/kg/injection, schedule: Q#A X014 (ip), vehicle: methylcellulose (MC)): 24 % of control and 44 % of control | T/C (dose: 65.0 mg/kg/injection, schedule: Q01DX007 (ip), vehicle: carboxymethylcellulose (CMC)): 28 % of control | T/C [2]: 57 % of control | T/C (dose: 75.0 mg/kg/injection, schedule: Q#A X014 (ip), vehicle: carboxymethylcellulose (CMC)): 7 % of control | T/C (dose: 75.0 mg/kg/injection, schedule: Q#A X014 (ip), vehicle: methylcellulose (MC)): 16 % of control and 34 % of control | T/C (dose: 220.0 mg/kg/injection, schedule: Q01DX007 (ip), vehicle: carboxymethylcellulose (CMC)): 11 % of control | T/C (dose: 300.0 mg/kg/injection, schedule: Q01DX007 (ip), vehicle: carboxymethylcellulose (CMC)): 1 % of control

CC(=O)NNC(=O)c1ccccn1
T/C (dose: 37.5 mg/kg/injection, schedule: Q01DX007 (ip), vehicle: water): 112 % of control | T/C (dose: 75.0 mg/kg/injection, schedule: Q01DX007 (ip), vehicle: water): 104 % of control | T/C [5]: 89 % of control | T/C [6]: 98 % of control

CS(=O)(=O)OCCC(=O)N1CCN(C(=O)CCOS(C)(=O)=O)CC1
T/C (dose: 12.5 mg/kg/injection, schedule: Q01DX007 (ip), vehicle: saline): 92 % of control | T/C (dose: 25.0 mg/kg/injection, schedule: Q01DX007 (ip), vehicle: saline): 76 % of control and 100 % of control | T/C (dose: 67.0 mg/kg/injection, schedule: Q#A X014 (ip), vehicle: methylcellulose (MC)): 8 % of control and 23 % of control | T/C (dose: 150.0 mg/kg/injection, schedule: Q#A X014 (ip), vehicle: methylcellulose (MC)): 7 % of control

Cc1[nH]ccc2c(C)c3nc4ccccc4c3cc12
T/C (dose: 25.0 mg/kg/injection, schedule: Q01DX007 (ip), vehicle: water): 171 % of control | T/C (dose: 50.0 mg/kg/injection, schedule: Q01DX007 (ip), vehicle: water): 122 % of control | T/C [5]: 116 % of control | T/C [6]: 42 % of control

COc1ccc(-c2cc(=O)c3c(O)cc(OC)cc3o2)cc1
T/C (dose: 220.0 mg/kg/injection, schedule: Q01DX007 (ip), vehicle: saline): 76 % of control | T/C (dose: 330.0 mg/kg/injection, schedule: Q01DX007 (ip), vehicle: saline): 66 % of control | T/C [1]: 81 % of control

CC(NC(=O)C1(N)CCCC1)C(=O)O (stereo not drawn)
T/C (dose: 25.0 mg/kg/injection, schedule: Q01DX007 (ip), vehicle: carboxymethylcellulose (CMC)): 91 % of control | T/C [3]: 21 % of control | T/C (dose: 222.0 mg/kg/injection, schedule: Q01DX007 (ip), vehicle: steriod suspending solution): 36 % of control | T/C (dose: 333.0 mg/kg/injection, schedule: Q01DX007 (ip), vehicle: steriod suspending solution): 25 % of control

C[N+]1(CCC[N+]2(C)CC3C4C=CC(CC4)C3C2)CCOCC1 (stereo not drawn)
T/C (dose: 7.75 mg/kg/injection, schedule: Q01DX007 (ip), vehicle: saline): 62 % of control | T/C (dose: 15.5 mg/kg/injection, schedule: Q01DX007 (ip), vehicle: saline): 52 % of control | T/C (dose: 31.0 mg/kg/injection, schedule: Q01DX007 (ip), vehicle: saline): 86 % of control | T/C (dose: 62.0 mg/kg/injection, schedule: Q01DX007 (ip), vehicle: saline): 45 % of control

CC(=O)OCC(=O)[C@@]1(O)CC[C@H]2[C@@H]3CCC4=CC(=O)C=C[C@]4(C)[C@H]3[C@@H](O)C[C@@]21C
T/C (dose: 13.3 mg/kg/injection, schedule: Q01DX007 (sc), vehicle: steriod suspending solution): 73 % of control | T/C (dose: 20.0 mg/kg/injection, schedule: Q01DX007 (sc), vehicle: steriod suspending solution): 62 % of control | T/C (dose: 30.0 mg/kg/injection, schedule: Q01DX007 (sc), vehicle: steriod suspending solution): 51 % of control | T/C (dose: 45.0 mg/kg/injection, schedule: Q01DX007 (sc), vehicle: steriod suspending solution): 23 % of control

Nc1nc(=S)c2ncn(C3CCCO3)c2[nH]1 (stereo not drawn)
T/C [4]: 43 % of control and 46 % of control | T/C (dose: 45.0 mg/kg/injection, schedule: Q01DX007 (ip), vehicle: carboxymethylcellulose (CMC)): 18 % of control and 38 % of control | T/C (dose: 90.0 mg/kg/injection, schedule: Q01DX007 (ip), vehicle: carboxymethylcellulose (CMC)): 9 % of control

c1ccc2nc3c(nc2c1)[nH]c1ccccc13
T/C (dose: 62.5 mg/kg/injection, schedule: Q01DX007 (ip), vehicle: carboxymethylcellulose (CMC)): 76 % of control | T/C (dose: 125.0 mg/kg/injection, schedule: Q01DX007 (ip), vehicle: carboxymethylcellulose (CMC)): 67 % of control | T/C (dose: 250.0 mg/kg/injection, schedule: Q01DX007 (ip), vehicle: carboxymethylcellulose (CMC)): 114 % of control

Source: PubChem BioAssay AID342 (DTP/NCI, 2004)
